Test results from article PMC6571133, “Capsazepine prolongation of the duration of lidocaine block of sensory transmission in mice may be mediated by modulation of HCN channel currents” (PeerJ, 2019).

Assays:
[1] = molecular target: mHCN1 (Mouse HCN1) (Mus musculus, UniProt O88704); experiment: whole-cell patch clamp of Ih in transfected HEK […] cells; assay type: cell-based
[2] = molecular target: T1, mHCN2 (Mouse HCN2) (Mus musculus, UniProt O88703); experiment: as above; assay type: cell-based
T1 sequence (O88703 1-863): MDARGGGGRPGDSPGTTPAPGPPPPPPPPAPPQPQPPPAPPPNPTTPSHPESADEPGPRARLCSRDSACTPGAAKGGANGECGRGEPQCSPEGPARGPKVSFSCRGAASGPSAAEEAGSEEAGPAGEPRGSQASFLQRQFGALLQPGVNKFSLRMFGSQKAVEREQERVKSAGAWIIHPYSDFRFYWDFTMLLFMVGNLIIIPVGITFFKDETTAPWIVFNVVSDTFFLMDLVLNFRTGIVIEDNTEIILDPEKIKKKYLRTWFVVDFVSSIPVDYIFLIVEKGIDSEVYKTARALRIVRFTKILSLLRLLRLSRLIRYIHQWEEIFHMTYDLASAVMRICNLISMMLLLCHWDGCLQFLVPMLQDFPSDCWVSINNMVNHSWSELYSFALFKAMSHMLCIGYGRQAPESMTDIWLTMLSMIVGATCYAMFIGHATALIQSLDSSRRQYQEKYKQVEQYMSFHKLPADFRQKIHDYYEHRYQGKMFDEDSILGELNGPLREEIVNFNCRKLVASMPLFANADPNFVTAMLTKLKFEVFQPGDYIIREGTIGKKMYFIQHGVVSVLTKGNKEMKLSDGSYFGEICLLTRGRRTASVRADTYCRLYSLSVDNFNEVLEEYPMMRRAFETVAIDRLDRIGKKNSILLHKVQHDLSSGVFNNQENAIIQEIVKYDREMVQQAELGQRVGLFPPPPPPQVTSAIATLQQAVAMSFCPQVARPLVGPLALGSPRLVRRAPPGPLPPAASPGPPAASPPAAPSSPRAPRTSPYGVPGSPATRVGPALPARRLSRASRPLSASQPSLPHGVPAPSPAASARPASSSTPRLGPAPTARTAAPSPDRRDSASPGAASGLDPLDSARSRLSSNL

Chain of mHCN1 (Mouse HCN1) (O88704 whole entry): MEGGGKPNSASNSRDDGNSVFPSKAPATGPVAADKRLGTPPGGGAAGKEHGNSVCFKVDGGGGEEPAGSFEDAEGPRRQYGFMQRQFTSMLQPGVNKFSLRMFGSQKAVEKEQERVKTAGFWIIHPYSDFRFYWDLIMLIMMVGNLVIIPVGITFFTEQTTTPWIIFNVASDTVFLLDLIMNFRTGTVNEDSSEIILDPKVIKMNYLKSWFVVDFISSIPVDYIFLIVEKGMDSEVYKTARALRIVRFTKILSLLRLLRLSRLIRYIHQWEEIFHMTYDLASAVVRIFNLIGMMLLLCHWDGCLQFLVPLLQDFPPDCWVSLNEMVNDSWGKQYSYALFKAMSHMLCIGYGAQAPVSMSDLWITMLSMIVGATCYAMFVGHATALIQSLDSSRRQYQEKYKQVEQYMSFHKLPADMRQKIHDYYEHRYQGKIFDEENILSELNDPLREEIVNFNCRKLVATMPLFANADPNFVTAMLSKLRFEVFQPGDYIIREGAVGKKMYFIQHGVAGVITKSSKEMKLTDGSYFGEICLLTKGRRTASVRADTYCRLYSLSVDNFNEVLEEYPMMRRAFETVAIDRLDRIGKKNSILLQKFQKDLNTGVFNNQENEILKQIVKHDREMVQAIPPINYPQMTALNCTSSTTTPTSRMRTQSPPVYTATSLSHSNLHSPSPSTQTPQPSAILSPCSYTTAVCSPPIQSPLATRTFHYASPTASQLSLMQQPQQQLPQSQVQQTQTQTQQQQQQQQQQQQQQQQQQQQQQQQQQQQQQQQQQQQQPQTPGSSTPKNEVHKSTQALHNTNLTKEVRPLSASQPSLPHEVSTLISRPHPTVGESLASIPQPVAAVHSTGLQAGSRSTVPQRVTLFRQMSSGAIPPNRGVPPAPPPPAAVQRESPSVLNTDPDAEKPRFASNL

IC50 [1]: 8.2 ± 0.3 µM
IC50 [2]: 9.6 ± 0.4 µM
SMILES: Oc1cc2c(cc1O)CN(C(=S)NCCc1ccc(Cl)cc1)CCC2 [CPZ, Capsazepine]
